Results taken from patent publication US20230295087A1, “AGONISTS OF ROR GAMMAt” (BRISTOL-MYERS SQUIBB COMPANY, priority 2019, published 2023).

Biological target: T1, human RORgT (Homo sapiens, UniProt P51449)
T1 construct: expressed in transfected cells
T1 sequence (P51449 267-516): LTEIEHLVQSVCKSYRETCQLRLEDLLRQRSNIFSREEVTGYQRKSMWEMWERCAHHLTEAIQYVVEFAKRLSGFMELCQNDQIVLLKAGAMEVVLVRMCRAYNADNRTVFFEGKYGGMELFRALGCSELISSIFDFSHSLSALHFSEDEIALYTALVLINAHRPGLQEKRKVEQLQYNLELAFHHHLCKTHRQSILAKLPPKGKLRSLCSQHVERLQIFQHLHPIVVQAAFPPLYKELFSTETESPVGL
Experiment: RORgT Gal4 Luciferase Reporter Gene Assay
Assay type: cell-based
Settings: engineered Jurkat cells overexpressing RORgT (LBD or full length) fused with Gal4 Luc reporter; 18 hours at 37° C.; luminescence
Experimental: RORgT Gal4 Luciferase Reporter Gene Assay
25 µL of cryopreserved Jurkat cells over expressing ligand binding domain (LBD) of RORgT (aa267-516, NM_005060) and Gal4 Luc, or full length of human RORgT and Gal4 Luc, were plated in 384-well solid white cell culture plates (PerkinElmer 6007899), with a density of 10,000 cells/well in RPMI 1640 cell culture media (Gibco 11875-085). The media contained 0.1% BSA, 10 mM HEPES (Gibco 15360-080), […] Sodium Pyruvate (Gibco 11360-040), […] Hygromycin B (Invitrogen 10687-010), and […] Blasticidin (Invitrogen R210-01).
100 nL of compound at varying concentrations in 3-fold serial dilution, with final concentrations ranging from 40 µM to 0.67 nM, were added to the cells using Labcyte Echo 550. The compound and the cells were incubated for 18 hours at 37° C. in a cell culture incubator. Cells were then lysed with 15 uL of Steady-Glo Luciferase Assay reagent (Promega EZ550), followed by centrifuging the assay plates at 1500 RPM for 1 minute. Subsequently, the plates were read on the Envision (PerkinElmer). The inhibition of constitutive activity of RORgT achieved by graded concentrations of compound was calculated as a percentage of the luminescence signal window reduction over a control compound.

| EC50 [nM] | Structure (SMILES) |
| --- | --- |
| 7.5 | Cc1ccccc1Oc1ccc2c(c1)CC[C@H]1N(C(=O)C3(C)CCS(=O)(=O)CC3)CC[C@@]21S(=O)(=O)c1ccc(F)cc1 [Example 48, 4-[(3aR,9bR)-9b-(4-fluorobenzenesulfonyl)-7-(2-methylphenoxy)-1H,2H,3H,3aH,4H,5H,9bH-benzo[e]indole-3-carbonyl]-4-methyl-1λ^6-thiane-1,1-dione] |
| 1.8 | Cc1ccccc1Oc1ccc2c(c1)CC[C@H]1N(C(=O)C3CCS(=O)(=O)CC3)CC[C@@]21S(=O)(=O)c1ccc(F)cc1 [Example 49, 4-[(3aR,9bR)-9b-(4-fluorobenzenesulfonyl)-7-(2-methylphenoxy)-1H,2H,3H,3aH,4H,5H,9bH-benzo[e]indole-3-carbonyl]-1λ^6-thiane-1,1-dione] |
| 6.8 | Cc1ccccc1Oc1ccc2c(c1)CC[C@H]1N(C(=O)[C@]3(C)CC[C@@H](C(=O)O)CC3)CC[C@@]21S(=O)(=O)c1ccc(F)cc1 [Example 50, (1r,4r)-4-[(3aR,9bR)-9b-(4-fluorobenzenesulfonyl)-7-(2-methylphenoxy)-1H,2H,3H,3aH,4H,5H,9bH-benzo[e]indole-3-carbonyl]-4-methylcyclohexane-1-carboxylic acid] |
| 32 | CC(=O)N1CCC(CN2CC[C@@]3(S(=O)(=O)c4ccc(F)cc4)c4ccc(OCc5c(F)cccc5C(F)(F)F)cc4CC[C@@H]23)CC1 [Example 51, 1-(4-{[(3aR,9bR)-7-{[2-fluoro-6-(trifluoromethyl)phenyl]methoxy} -9b-(4-fluorobenzenesulfonyl)-1H,2H,3H,3aH,4H,5H,9bH-benzo[e]indol-3-yl]methyl}piperidin-1-yl)ethan-1-one] |
| 24 | CC(=O)N1CCC(C)(CN2CC[C@@]3(S(=O)(=O)c4ccc(F)cc4)c4ccc(OCc5c(F)cccc5C(F)(F)F)cc4CC[C@@H]23)CC1 [Example 52, 1-(4-{[(3aR,9bR)-7-{[2-fluoro-6-(trifluoromethyl)phenyl]methoxy} -9b-(4-fluorobenzenesulfonyl)-1H,2H3H,3aH,4H,5H,9bH-benzo[e]indol-3-yl]methyl}-4-methylpiperidin-1-yl)ethan-1-one] |
| 16 | CC(C)(C)OC(=O)N1CC[C@@]2(S(=O)(=O)c3ccc(F)cc3)c3ccc(Cc4ccccc4)cc3CC[C@@H]12 [Example 53, ert-butyl (3aR,9bR)-7-benzyl-9b-(4-fluorobenzenesulfonyl)-1H,2H,3H,3aH,4H,5H,9bH-benzo[e]indole-3-carboxylate] |
| 290 | O=C(O)[C@H]1CC[C@H](C(=O)N2CC[C@@]3(S(=O)(=O)c4ccccc4)c4ccc(OCc5ccccc5)cc4CC[C@@H]23)CC1 [Example 54, (1r,4r)-4-[(3aR,9bR)-9b-(benzenesulfonyl)-7-(benzyloxy)-1H,2H,3H,3aH,4H,5H,9bH-benzo[e]indole-3-carbonyl]cyclohexane-1-carboxylic acid] |
| 83 | CN1CCC(C(=O)N2CC[C@@]3(S(=O)(=O)c4ccccc4)c4ccc(OCc5c(Cl)cccc5Cl)cc4CC[C@@H]23)CC1=O (stereo partly drawn) [Example 55, 4-[(3aR,9bR)-9b-(benzenesulfonyl)-7-[(2,6-dichlorophenyl)methoxy]-1H,2H,3H,3aH,4H,5H,9bH-benzo[e]indole-3-carbonyl]-1-methylpiperidin-2-one] |
| 66 | O=C(CC1CCS(=O)(=O)CC1)N1CC[C@@]2(S(=O)(=O)c3ccccc3)c3ccc(OCc4c(Cl)cccc4Cl)cc3CC[C@@H]12 [Example 56, 4-{2-[(3aR,9bR)-9b-(benzenesulfonyl)-7-[(2,6-dichlorophenyl)methoxy]-1H,2H,3H,3aH,4H,5H,9bH-benzo[e]indol-3-yl]-2-oxoethyl}-1λ^6-thiane-1,1-dione] |
| 13 | CC(=O)N1CCC(C(=O)N2CC[C@@]3(S(=O)(=O)c4ccccc4)c4ccc(OCc5c(Cl)cccc5Cl)cc4CC[C@@H]23)CC1 [Example 57, 1-{4-[(3aR,9bR)-9b-(benzenesulfonyl)-7-[(2,6-dichlorophenyl)methoxy]-1H,2H,3H,3aH,4H,5H,9bH-benzo[e]indole-3-carbonyl]piperidin-1-yl}ethan-1-one] |
| 587 | CS(=O)(=O)NCC(=O)N1CC[C@@]2(S(=O)(=O)c3ccccc3)c3ccc(OCc4c(Cl)cccc4Cl)cc3CC[C@@H]12 [Example 58, N-{2-[(3aR,9bR)-9b-(benzenesulfonyl)-7-[(2,6-dichlorophenyl)methoxy]-1H,2H,3H,3aH,4H,5H,9bH-benzo[e]indol-3-yl]-2-oxoethyl} methanesulfonamide] |
| 16 | O=C(C1CCS(=O)(=O)C1)N1CC[C@@]2(S(=O)(=O)c3ccccc3)c3ccc(OCc4c(Cl)cccc4Cl)cc3CC[C@@H]12 (stereo partly drawn) [Example 59, 3-[(3aR,9bR)-9b-(benzenesulfonyl)-7-[(2,6-dichlorophenyl)methoxy]-1H,2H,3H,3aH,4H5H,9bH-benzo[e]indole-3-carbonyl]-1λ^6-thiolane-1,1-dione] |
| 10 | CS(=O)(=O)N1CCC(C(=O)N2CC[C@@]3(S(=O)(=O)c4ccccc4)c4ccc(OCc5c(Cl)cccc5Cl)cc4CC[C@@H]23)CC1 [Example 60, 4-[(3aR,9bR)-9b-(benzenesulfonyl)-7-[(2,6-dichlorophenyl)methoxy]-1H,2H,3H,3aH,4H,5H,9bH-benzo[e]indole-3-carbonyl]-1-methanesulfonylpiperidine] |
| 76 | CN1CCC(C(=O)N2CC[C@@]3(S(=O)(=O)c4ccccc4)c4ccc(OCc5c(Cl)cccc5Cl)cc4CC[C@@H]23)CC1 [Example 61, 4-[(3aR,9bR)-9b-(benzenesulfonyl)-7-[(2,6-dichlorophenyl)methoxy]-1H,2H,3H,3aH,4H,5H,9bH-benzo[e]indole-3-carbonyl]-I-methylpiperidine] |
| 15 | NC(=O)N1CCC(C(=O)N2CC[C@@]3(S(=O)(=O)c4ccccc4)c4ccc(OCc5c(Cl)cccc5Cl)cc4CC[C@@H]23)CC1 [Example 62, 4-[(3aR,9bR)-9b-(benzenesulfonyl)-7-[(2,6-dichlorophenyl)methoxy]-1H,2H,3H,3aH,4H,5H,9bH-benzo[e]indole-3-carbonyl]piperidine-1-carboxamide] |
| 62 | O=C(C1CCS(=O)(=O)N1)N1CC[C@@]2(S(=O)(=O)c3ccccc3)c3ccc(OCc4c(Cl)cccc4Cl)cc3CC[C@@H]12 (stereo partly drawn) [Example 63, 3-[(3aR,9bR)-9b-(benzenesulfonyl)-7-[(2,6-dichlorophenyl)methoxy]-1H,2H,3H,3aH,4H,5H,9bH-benzo[e]indole-3-carbonyl]-1λ^6,2-thiazolidine-1,1-dione] |
| 921 | O=C(CN1CCCCS1(=O)=O)N1CC[C@@]2(S(=O)(=O)c3ccccc3)c3ccc(OCc4c(Cl)cccc4Cl)cc3CC[C@@H]12 [Example 64, 2-{2-[(3aR,9bR)-9b-(benzenesulfonyl)-7-[(2,6-dichlorophenyl)methoxy]-1H,2H,3H,3aH,4H,5H,9bH-benzo[e]indol-3-yl]-2-oxoethyl}-1λ^6,2-thiazinane-1,1-dione] |
| 256 | O=C1NC(C(=O)N2CC[C@@]3(S(=O)(=O)c4ccccc4)c4ccc(OCc5c(Cl)cccc5Cl)cc4CC[C@@H]23)CO1 (stereo partly drawn) [Example 65, 4-[(3aR,9bR)-9b-(benzenesulfonyl)-7-[(2,6-dichlorophenyl)methoxy]-1H,2H,3H,3aH,4H,5H,9bH-benzo[e]indole-3-carbonyl]-1,3-oxazolidin-2-one] |
| 272 | O=C(O)C1CCC(C(=O)N2CC[C@@]3(S(=O)(=O)c4ccccc4)c4ccc(OCc5c(Cl)cccc5Cl)cc4CC[C@@H]23)CC1 (stereo partly drawn) [Example 66, 4-[(3aR,9bR)-9b-(benzenesulfonyl)-7-[(2,6-dichlorophenyl)methoxy]-1H,2H,3H,3aH,4H,5H,9bH-benzo[e]indole-3-carbonyl]cyclohexane-1-carboxylic acid] |
| 416 | CC(=O)NC1CC2(C1)CC(C(=O)N1CC[C@@]3(S(=O)(=O)c4ccccc4)c4ccc(OCc5c(Cl)cccc5Cl)cc4CC[C@@H]13)C2 (stereo partly drawn) [Example 67, N-{6-[(3aR,9bR)-9b-(benzenesulfonyl)-7-[(2,6-dichlorophenyl)methoxy]-1H,2H,3H,3aH,4H,5H,9bH-benzo[e]indole-3-carbonyl]spiro[3.3]heptan-2-yl}acetamide] |
| 409 | CC(=O)N1CC2(CC(C(=O)N3CC[C@@]4(S(=O)(=O)c5ccccc5)c5ccc(OCc6c(Cl)cccc6Cl)cc5CC[C@@H]34)C2)C1 [Example 68, 1-{6-[(3aR,9bR)-9b-(benzenesulfonyl)-7-[(2,6-dichlorophenyl)methoxy]-1H,2H,3H,3aH,4H,5H,9bH-benzo[e]indole-3-carbonyl]-2-azaspiro[3.3]heptan-2-yl}ethan-1-one] |
| 17 | CS(=O)(=O)CC(=O)N1CC[C@@]2(S(=O)(=O)c3ccccc3)c3ccc(OCc4c(Cl)cccc4Cl)cc3CC[C@@H]12 [Example 69, 1-[(3aR,9bR)-9b-(benzenesulfonyl)-7-[(2,6-dichlorophenyl)methoxy]-1H,2H,3H,3aH,4H,5H,9bH-benzo[e]indol-3-yl]-2-methanesulfonylethan-1-one] |
